Measurements: patent US20210255193A1, “LYSINE REACTIVE PROBES AND USES THEREOF” (The Scripps Research Institute, priority 2017, published 2021)
One block for each compound: values may come before it.

Experiments:
PFKP = target: T1, PFKP (Homo sapiens, UniProt Q01813, K688R); assay: PFKP functional assay; format: biochemical; conditions: K688R mutant
T1 construct: Flag; expressed in transfected cells; host or cells: HEK 293T, transient transfection, soluble lysate; cDNA clone 5180268 (Dharmacon)
Procedure: PFKP functional assay. For inhibitor experiments, 50 μl of soluble proteome (initial total protein concentration: 1 mg ml^−1) from HEK 293T cells expressing PFKP (WT or K688R mutant) or mock transfected cells (empty vector; negative control) were incubated with 1 μl 50× of the compound in DMSO or DMSO for the positive or negative control for 1 h at room temperature. Lysates were diluted 40× with dilution buffer (PBS containing 0.2 mg ml^−1 BSA and 5 mM MgCl2) and 40 μl were added into a clear bottom 384 well plate. 10 μl of a mixture of 3.5 μl PBS, 2.5 μl fructose-6-phosphate (100 mM), 1 μl NADH (20 mM), 1 μl ATP (50 mM), 1 μl aldolase (50 U ml^−1) and 1 μl GDH/TPI (500 U ml^−1 TPI, 50 U ml^−1 GDH) were added to start the reaction. The absorbance of NADH was measured at 340 nm every minute for 30 min.
(§1) Calculation of relative activity or percent inhibition. For PNPO, PFKP, NUDT2 and G6PD, the slope of the linear regression of the linear portion of the absorbance or fluorescence over time was used as measure their activity. Apparent activity was calculated relative to the WT. Percent inhibition was calculated relative to the positive and negative control and used to calculate IC50 values by nonlinear regression analysis from a dose-response curve generated using GraphPad Prism 7.

[1] = target: T2, interaction between SIN3A and TGIF1 (Homo sapiens, UniProt Q96ST3, K155R); assay: Co-IP experiment, anti-Myc western blot; format: binding; conditions: K155R SIN3A
T2 construct: flag-SIN3A or the indicated Flag-SIN3A mutants (a.a. 1-400), or Flag-GFP, were co-expressed in HEK 293T cells with Myc-TGIF1 or Myc-TGIF2; expressed in transfected cells; host or cells: HEK 293T
Procedure: (§2) Co-IP experiment for the interaction between SIN3A and TGIF1 and TGIF2. 6 cm dishes of HEK 293T cells were transfected at 40% confluency with 600 ng of FLAG-GFP, FLAG-SIN3A WT, K155W, or K155R construct, and 600 ng of MYC-TGIF1 or MYC-TGIF2 as indicated. After 48 hours, cells were lysed and enriched as described above. Following elution in 40 μL urea, 15 μL of loading buffer was added to samples. 15 μL of both input (10%) and outputs were loaded onto an SDS-PAGE gel.
(§3) Western blotting. Proteins were resolved by SDS-PAGE (3 h, 300 V) and transferred to nitrocellulose membranes (90 min, 60 V), blocked with 5% milk in TBS-T and probed with the indicated antibodies in 5% milk in TBS-T. The primary antibodies and the dilutions used are as follows: anti-Flag (Sigma Aldrich, F1804, 1:3,000), anti-Myc (Cell Signalling, 2272S, 1:5,000), anti-actin (Cell Signaling, 3700, 1:3,000) and anti-GAPDH (Santa Cruz, 32233, 1:10,000). Blots were incubated with primary antibodies overnight at 4° C. with rocking and were then washed (3×5 min, TBS-T) and incubated with secondary antibodies (LICOR, IRDye 800CW or IRDye 680LT, 1:10,000) for 1 h at ambient temperature. Blots were further washed (3×5 min, TBST) and visualized on a LICOR Odyssey Scanner. Relative band intensities were quantified using ImageJ software.

[2] = target: T3, interaction between SIN3A and TGIF1 (Homo sapiens, UniProt Q96ST3); assay: Co-IP experiment, anti-Myc western blot; format: binding; conditions: anti-Myc blotting
T3 construct: flag-SIN3A or the indicated Flag-SIN3A mutants (a.a. 1-400), or Flag-GFP, were co-expressed in HEK 293T cells with Myc-TGIF1 or Myc-TGIF2; expressed in transfected cells; host or cells: HEK 293T
Procedure: as §2, §3

[3] = target: T4, interaction between SIN3A and TGIF2 (Homo sapiens, UniProt Q96ST3); assay: Co-IP experiment, anti-Myc western blot; format: binding; conditions: anti-Myc blotting
T4 construct: flag-SIN3A or the indicated Flag-SIN3A mutants (a.a. 1-400), or Flag-GFP, were co-expressed in HEK 293T with Myc-TGIF2; expressed in transfected cells; host or cells: HEK 293T
Procedure: as §2, §3

NUDT2 = target: T5, NUDT2 (Homo sapiens, UniProt P50583); assay: NUDT2 functional assay; format: biochemical; conditions: substrate assay
T5 construct: expressed in transfected cells; host or cells: HEK 293T, transient transfection, soluble lysate; synthesized gene (IDT)
Procedure: NUDT2 functional assay. NUDT2 activity was measured with a published assay using a fluorogenic substrate. For inhibitor experiments, 50 μl of soluble proteome (initial total protein concentration: 1 mg ml^−1) from HEK 293T cells expressing NUDT2 (WT or K89R mutant) or mock transfected cells (empty vector; negative control) were incubated with 1 μl 50× of the compound in DMSO or DMSO for the positive or negative control (lysate transfected with empty vector) for 1 h at room temperature. Lysates were diluted 4000× with dilution buffer and 64 μl were added into a black 384 well plate. 16 μl of fluorogenic substrate (5 μM) were added to start the reaction. The fluorescence intensity with excitation at 530 nm and emission at 563 nm was measured every minute for 30 min.
as §1

T1 sequence (Q01813 whole entry K688R): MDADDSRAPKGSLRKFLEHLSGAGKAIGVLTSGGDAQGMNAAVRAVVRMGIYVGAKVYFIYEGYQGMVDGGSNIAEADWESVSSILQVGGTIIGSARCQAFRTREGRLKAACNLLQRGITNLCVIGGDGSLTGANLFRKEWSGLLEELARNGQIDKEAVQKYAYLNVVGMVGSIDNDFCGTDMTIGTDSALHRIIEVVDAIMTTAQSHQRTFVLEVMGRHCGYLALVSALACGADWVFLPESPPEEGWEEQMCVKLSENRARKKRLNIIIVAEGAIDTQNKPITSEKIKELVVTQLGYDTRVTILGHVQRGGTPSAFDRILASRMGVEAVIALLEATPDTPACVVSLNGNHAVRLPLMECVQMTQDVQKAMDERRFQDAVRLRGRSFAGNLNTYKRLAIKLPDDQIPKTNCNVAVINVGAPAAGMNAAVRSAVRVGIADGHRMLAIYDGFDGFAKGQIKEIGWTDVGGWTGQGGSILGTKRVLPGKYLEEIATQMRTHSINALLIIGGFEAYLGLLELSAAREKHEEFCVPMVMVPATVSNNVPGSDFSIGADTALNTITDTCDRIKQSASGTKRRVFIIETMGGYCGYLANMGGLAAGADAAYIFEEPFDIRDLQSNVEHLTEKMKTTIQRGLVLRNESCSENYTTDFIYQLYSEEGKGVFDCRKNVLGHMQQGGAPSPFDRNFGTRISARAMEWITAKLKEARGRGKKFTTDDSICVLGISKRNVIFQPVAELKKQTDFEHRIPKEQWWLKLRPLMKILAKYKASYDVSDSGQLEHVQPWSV
T5 sequence (P50583 whole entry): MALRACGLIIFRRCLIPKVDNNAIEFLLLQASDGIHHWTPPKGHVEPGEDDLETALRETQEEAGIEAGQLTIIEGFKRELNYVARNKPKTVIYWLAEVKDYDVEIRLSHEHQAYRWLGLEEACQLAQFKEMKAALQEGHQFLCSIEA
T3 sequence (Q96ST3 1-400): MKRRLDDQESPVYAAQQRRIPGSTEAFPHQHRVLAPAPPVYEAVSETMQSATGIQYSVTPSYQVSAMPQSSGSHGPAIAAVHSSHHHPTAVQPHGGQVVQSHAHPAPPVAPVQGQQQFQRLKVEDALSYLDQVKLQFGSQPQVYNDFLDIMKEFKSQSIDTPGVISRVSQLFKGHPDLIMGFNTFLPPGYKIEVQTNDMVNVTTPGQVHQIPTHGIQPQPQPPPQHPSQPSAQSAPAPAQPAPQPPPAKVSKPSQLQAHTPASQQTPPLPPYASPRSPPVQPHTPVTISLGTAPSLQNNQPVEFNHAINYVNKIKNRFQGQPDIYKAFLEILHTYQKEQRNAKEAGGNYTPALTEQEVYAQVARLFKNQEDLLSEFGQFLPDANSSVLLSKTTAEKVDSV
T4 sequence (Q96ST3 1-400): as above
T2 sequence (Q96ST3 1-400 K155R): as the sequence (Q96ST3 1-400) above, with K155R counted along it

- inhibition of K688R-PFKP mutant activity (PFKP): not the K688R-PFKP mutant
SMILES: O=C(Oc1c(F)c(F)c(F)c(F)c1F)C(c1ccccc1)c1ccccc1 [fragment 20, Pentafluorophenyl 2,2-diphenylacetate]

- co-immunoprecipitation of TGIF2 with SIN3A [3]: partial blockade
SMILES: O=C(Oc1c(F)c(F)c(F)c(F)c1F)c1cc(C(F)(F)F)cc(C(F)(F)F)c1 [fragment 21, Pentafluorophenyl 3,5-bis(trifluoromethyl)benzoate]
- effect on SIN3A-TGIF1 interaction, K155R mutant [1]: conferred resistance to the effects of 21
- co-immunoprecipitation of TGIF1 with SIN3A [2]: blocked the co-immunoprecipitation of TGIF1

- IC50, inhibition of NUDT2 activity (NUDT2): equivalent IC50 value
SMILES: COC(=O)NC(=NC(=O)OCC1c2ccccc2-c2ccccc21)n1cccn1 [fragment 49, N-Methoxycarbonyl-N′-9-fluorenylmethoxycarbonyl-pyrazole-1-carboxamidine]
